One test relates to WT CFTR HBEs. Put plainly: Ussing chamber Isc, DCEBIO-induced Cl- secretion. As to conditions: VX-445 10 µM. It is filed as cell-based, human. An excerpt: Primary human bronchial epithelial cells (HBEs) were collected from unused or discarded samples from the Center for Organ Recovery and Education via the University of Pittsburgh Pulmonary, Allergy, Critical Care, and Sleep Medicine Lung Biobank and Repository. All experimental procedures involving the use of HBEs were approved by the institutional review board (IRB STUDY19090084) and the Committee for Oversight of Research and Clinical Training Involving Decedents (CORID number 451) at the University of Pittsburgh. At all times, authors were blind to the identity of HBE donors. HBEs were cultured using the Vertex method ([72]). Studies were carried out on WT CFTR HBEs from 11 ([13]) donors and homozygous F508del/F508del CFTR HBEs from five ([5]) separate donors. HBEs were plated on Costar Transwell permeable supports ([…], 6.5 mm insert, polyester membrane, Corning) and grown at an air–liquid interface for 5+ weeks in HBE differentiation medium containing 2% Ultroser-G. Basolateral media were replaced three times per week. For whole-cell patch-clamp studies, HBEs were maintained in BronchiaLife airway media (LifeLine Cell Technology, LS-1047) and plated onto poly-L-lysine-coated coverslips (see below).
Costar Transwell inserts were mounted in a modified Ussing chamber (P2300, Physiologic Instruments) and the monolayers continuously short-circuited (VCC MC8, Physiologic Instruments) by forcing the transepithelial voltage to 0 mV. Short-circuit current (Isc) measurements were taken in symmetric solutions, containing (in mM): 120 NaCl, 25 NaHCO3, 3.3 KH2PO4, 0.8 K2HPO4, 1.2 CaCl2, 1.2 MgCl2, and 10 glucose. The pH of the solution is 7.4 when gassed with 95% O2–5% CO2 at 37°C. Compounds were added cumulatively following the establishment of a new stable current response. Amiloride was added to the apical membrane, while all other compounds were added to both membranes due to their lipophilic nature. In all experiments, 10 µM amiloride was used to inhibit sodium absorption. Percent inhibition was calculated as the change in Isc (ΔIsc) between the forskolin or DCEBIO stable current level and the Isc following addition of the compound being assessed divided by the ΔIsc between the stable forskolin- or DCEBIO-induced Isc and the Isc following bumetanide addition.

In the next test the target is T1, KCa3.1 (Homo sapiens, UniProt O15554).
T1 construct: expressed in transfected cells
Kind of test: Whole-cell patch-clamp on HEK cells heterologously expressing KCa3.1. It is filed as cell-based. As to conditions: HEK293, VX-445 10 µM. Here is the method: Our Isc results are consistent with VX-445 inhibiting KCa3.1 in HBEs. To directly assess this possibility, we initially carried out whole-cell patch-clamp studies on undifferentiated HBEs. […] Upon application of 10 µM VX-445, a majority of this current was inhibited, averaging 87 ± 4% (n = 3, P < 0.005; Fig. 3B). A summary of the current–voltage (I–V) relationship—normalized to cell capacitance—is shown in Fig. 3C, which also includes the whole-cell I–V in the presence of Tram-34. […] To ensure isolation of KCa3.1 currents and to more fully characterize this VX-445-dependent inhibition of KCa3.1, we utilized HEK cells heterologously expressing KCa3.1 (HEK-KCa3.1). Initially, we confirmed our results from HBEs, using whole-cell recordings, as above. […] In seven experiments, this inhibition averaged 58 ± 7% (P < 0.005). […] It is well recognized that drugs are carried to their targets in the blood bound to albumin, which ranges from 3.4 to 5.4%. Thus, we determined whether VX-445 (10 µM) would inhibit KCa3.1 expressed in HEK cells in the presence of 3.4% albumin. In four experiments, VX-445 inhibited an average of 51 ± 17% of the whole-cell KCa3.1 current, which is not different from that observed in the absence of albumin. To confirm the direct effect of VX-445 on KCa3.1, we utilized the excised, inside-out patch-clamp technique. The patch was then exposed to DCEBIO (100 µM) to further activate the channels ([34–37])—analogous to our Isc studies in HBEs. […] In three experiments, VX-445 inhibited an average of 63 ± 6% of the KCa3.1 current. Based on these experiments, we determined the apparent inhibitory constant, Ki for VX-445. For these experiments, patches were excised into saturating Ca^2+ (3 µM) to ensure maximal KCa3.1 activation. These studies were carried out in the absence of DCEBIO to eliminate the possibility that the inhibition observed was due to competition for the DCEBIO-binding site.
HEK cells stably expressing KCa3.1 (IK1, SK4), KCa2.3 (SK3), and KCa2.2 (SK2) were generated and cultured as previously described by us ([37], [66–71]).
HEK cells expressing the channel of interest were plated onto poly-L-lysine-coated glass coverslips 1–2 days prior to patch-clamp analysis. Electrophysiological recordings in the excised, inside-out, and whole-cell patch-clamp configurations were performed as recently described ([14]). For excised patch-clamp recordings, the pipette solution contained (in mM): 140 K-gluconate, 5 KCl, 1 CaCl2, 1 MgCl2, and 10 HEPES. The pH was adjusted to 7.2 with KOH. The bath solution contained (in mM): 145 K-gluconate, 5 KCl, 1.3 MgCl2, 10 HEPES, and 1 EGTA. Sufficient CaCl2 was added to obtain the desired free Ca^2+ concentration at a pH of 7.2 (adjusted with KOH). When recording KCa3.1 channels, ATP (300 µM) was added to the bath to diminish channel rundown ([73]). All recordings were carried out at a voltage of −100 mV, referenced to the extracellular compartment, as is standard. The apparent Ki and Hill coefficient for each CFTR corrector on KCa3.1, KCa2.3, and KCa2.2 were determined during a continuous recording by step-wise addition of increasing concentrations of compound and fitting the resultant relative remaining current to a Hill equation (Prism v. 10.1.0). The zero current level was determined by the addition of a 0 Ca^2+ solution (zero-added Ca^2+ plus 1 mM EGTA) at the end of the experiment. In the case of KCa3.1, TRAM-34, a known inhibitor of KCa3.1 ([45]), was used to confirm expression of the channel. For whole-cell experiments, pipettes contained (in mM): 145 K-gluconate, 10 EGTA, 7.5 CaCl2, 2 MgCl2, 3 mM NaATP, and 10 HEPES. The bath solution contained (in mM): 140 K-gluconate, 5 KCl, 1.0 MgCl2, 10 HEPES, and 2 CaCl2. Current–voltage relationships were determined by stepping from a holding potential of −80 mV to +80 mV in 20 mV increments for 400 ms. […]
(In general: In patch-clamp work, channel activity is measured electrically.)

The structures appear in SMILES notation. Where two headings read alike, the source gives them in different places.

For orientation: inhibition means the change of the read-out against control, counted positive when it falls.

Regarding `Cc1nn(C)cc1S(=O)(=O)NC(=O)c1ccc(-n2ccc(OCC(C)(C)C(F)(F)F)n2)nc1N1C[C@@H](C)CC1(C)C` [VX-445, elexacaftor], the inhibition at 10 µM in the test on WT CFTR HBEs (Homo sapiens, four donors, n = 12 (TRAM-34 series), read-out: inhibition of the DCEBIO-induced current) was found to be 69 ± 3%; at KCa3.1 (four experiments, read-out: inhibition of whole-cell KCa3.1 current in the presence of 3.4% albumin), 51 ± 17%; at KCa3.1 (seven experiments, read-out: inhibition of whole-cell KCa3.1 current), 58 ± 7%. The “decrease of the DCEBIO-induced Cl- current” value with WT CFTR HBEs (n = 19) was 54 ± 2%.

The values are drawn from PMC12275099, “VX-445 (elexacaftor) inhibits chloride secretion across human bronchial epithelial cells by directly blocking KCa3.1 channels” (PNAS Nexus, 2025).
